Results: ChEMBL document CHEMBL1125058 (J Med Chem, 1990)

Assays:
Aromatase = molecular target: T1, Aromatase (Homo sapiens, UniProt P11511)
T1 sequence (P11511 whole entry): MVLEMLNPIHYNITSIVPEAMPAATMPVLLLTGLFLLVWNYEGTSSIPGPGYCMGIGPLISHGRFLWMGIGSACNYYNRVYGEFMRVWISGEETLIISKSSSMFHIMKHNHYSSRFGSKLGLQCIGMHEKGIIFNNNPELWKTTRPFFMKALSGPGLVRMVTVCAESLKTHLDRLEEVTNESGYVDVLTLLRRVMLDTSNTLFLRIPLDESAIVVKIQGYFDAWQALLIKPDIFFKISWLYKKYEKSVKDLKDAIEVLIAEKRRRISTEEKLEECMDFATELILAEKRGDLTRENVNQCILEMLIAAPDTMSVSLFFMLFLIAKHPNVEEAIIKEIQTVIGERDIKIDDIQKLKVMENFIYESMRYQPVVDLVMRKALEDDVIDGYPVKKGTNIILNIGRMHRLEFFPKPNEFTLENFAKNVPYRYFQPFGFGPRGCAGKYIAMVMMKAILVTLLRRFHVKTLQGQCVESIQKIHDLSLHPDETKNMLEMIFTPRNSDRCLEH
Description: Inhibition of Cytochrome P450 19A1 in human placenta

[1] = Compound was evaluated for the spectral dissociation constant; format: ADME; conditions: read-out: Ks

Row | SMILES | IC50 (Aromatase) | Kd [1]
1 | CCCCCCC[C@]1(c2ccncc2)CCC(=O)NC1=O | 3200 nM | 
2 | CCCCCCCCN1C(=O)CCC(CC)(c2ccncc2)C1=O (centres undefined) |  | 510 nM
3 | CCCCCC[C@]1(c2ccncc2)CCC(=O)NC1=O | 3600 nM | 
4 | CCCCC[C@]1(c2ccncc2)CCC(=O)NC1=O | 2500 nM | 
